For 38 compounds, GI50 and TGI results are on record in PubChem BioAssay (NCI).

This experiment concerns MDA-MB-468 breast. Briefly: NCI tumour cell line growth inhibition, 48 h.

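All cell lines were grown in 96-well plates and treated with compound for 48 hours. GI50 = concentration required for 50% inhibition of growth. TGI: total growth inhibition.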

`N=C1N=C(N)S/C1=C\c1ccc2ncccc2c1`: the GI50 was over 25 µM and the TGI was over 25 µM.

For `O=C(c1ccccc1)c1ccc(O)c2ncccc12`, the GI50 was 2.41 µM and the TGI worked out at 7.75 µM.

Regarding `OCc1ncc(-c2ccccc2)s1`, the GI50 was over 100 µM and the TGI was over 100 µM.

In the case of `CC(=O)[O][Hg][CH2]C1(C)COC(C)([CH2][Hg][O]C(C)=O)CO1` (stereo unspecified), the GI50 was 1.97 µM and the TGI was found to be 4.12 µM.

On to `Clc1ccc(N/N=C(\c2ccccc2)c2ccccn2)nc1`, for which the GI50 was 0.0313 µM and the TGI was 0.316 µM.

With `COc1ccc(Nc2ncc(-c3ccccc3)o2)cc1OC`, the GI50 was over 11.6 µM and the TGI is over 25 µM.

Take `COc1ccc(C2CC(c3cccc(OC)c3)=NN2C(=O)c2cc(OC)c(OC)c(OC)c2)cc1` (stereo unspecified): the GI50 was 0.484 µM and the TGI is over 100 µM.

On to `CCOC(=O)Nc1ccc(C(=O)/C=C/c2ccccc2)cc1`, for which the GI50 is 25.2 µM and the TGI was over 100 µM.

`C#C[C@]1(O)CC[C@H]2[C@@H]3CC=C4c5sc(-c6ccc7c(c6)OCO7)nc5CC[C@]4(C)[C@H]3CC[C@@]21C`: the GI50 is 2.96 µM and the TGI stood at 10 µM.

Regarding `C[C@@H]1CC[C@@H]2[C@@H]1[C@H](OC(=O)c1ccc3ccccc3c1)[C@]1(C3CCCCC3)C[C@@H](OC(=O)CO)[C@@]2(C)O1`, the GI50 is 10.7 µM and the TGI stood at 26.2 µM.

For the compound `O=C1c2ccccc2C(=O)c2sc(Nc3ccc(Cl)cc3)nc21`, the GI50 was 1.98 µM and the TGI turned out to be 4.68 µM.

For the compound `C=C1C(=O)O[C@H]2[C@H]1CC/C(COC(=O)C(=O)c1c[nH]c3ccc(Cl)cc13)=C\CC[C@@]1(C)O[C@@H]21`, the GI50 was 0.353 µM and the TGI turned out to be 1.06 µM.

With `CCCCCCCCc1ccc(CCC(N)(CO)CO)cc1`, the GI50 was 1.63 µM and the TGI turned out to be 3.05 µM.

As for `COc1cc2oc(-c3cccc(C(=O)Nc4ccc(C)cc4)c3)cc(=O)c2c(OC)c1OC`, the GI50 is 3.88 µM and the TGI was 24.6 µM.

As to `CC(=O)OC1CC2(O)C(CCC3(C)C(c4ccc(=O)oc4)CCC32O)C2(C)CCC(OC3OC(CO)C(O)C(O)C3O)C=C12` (stereo unspecified), the GI50 was 0.0611 µM and the TGI is 0.338 µM.

Take `c1ccc2c(-c3cnn4cc(-c5ccc(N6CCNCC6)cc5)cnc34)ccnc2c1`: the GI50 was 0.335 µM and the TGI is 1.54 µM.

Turning to `CC1=C/C(O)CC(=O)Cc2nc(co2)C(=O)N2CCC=C2C(=O)OC(C(C)C)C(C)/C=C\C(=O)NC/C=C\1` (stereo unspecified), the GI50 is 11.4 µM and the TGI was determined as 27.5 µM.

In the case of `O=C(Nc1nc(-c2ccccc2)cs1)c1cc(O)c(O)c(O)c1`, the GI50 is 2.46 µM and the TGI was 12.7 µM.

As for `O=C(Nc1cc(C(F)(F)F)cc(C(F)(F)F)c1)Nc1ccc(OCc2nnc(-c3ccc(Cl)cc3)o2)c(F)c1`, the GI50 is 1 µM and the TGI worked out at 4.17 µM.

In the case of `CNC(C)[C@H]1CCC2C3CCC4C[C@@H](N(C)C(=O)c5ccccc5)CC[C@]4(C)C3CC[C@@]21C` (stereo partly specified), the GI50 was 0.854 µM and the TGI was found to be 2.72 µM.

On to `CNC12C3C4C1C1C2C3C41C(=O)N[C@H](C(=O)N(C)[C@H](C[C@@H](OC(C)=O)c1nc(C(=O)N[C@@H](Cc2ccccc2)C[C@H](C)C(=O)OC)cs1)C(C)C)C1CC1` (stereo partly specified), for which the GI50 was 0.0705 µM and the TGI worked out at 1.37 µM.

Turning to `CCOc1ccc(NC(=O)c2cc3ccccc3cc2O)cc1`, the GI50 was 64.6 µM and the TGI is over 100 µM.

`NC(=S)N/N=C/c1ccc(OC(=O)COc2ccccc2)cn1`: the GI50 was 2.31 µM and the TGI stood at 7.33 µM.

Regarding `O=C1Nc2ccc(CN3CCOC3=O)cc2/C1=C/c1cc(CN2CCOCC2)c[nH]1`, the GI50 is 20.7 µM and the TGI is 73.3 µM.

Take `CC(C)c1ccc(/C=N/N=C(N)N)cc1`: the GI50 was 1.85 µM and the TGI stood at 5.07 µM.

Regarding `CC(=O)Oc1ccccc1C(=O)NCCC[Se]C#N`, the GI50 was 3.19 µM and the TGI amounted to 15.6 µM.

As to `O=C(NCCNC(=O)c1ccc(F)cc1)Nc1ccc(-n2cc(-c3ccncc3)c(-c3ccc(Cl)c(O)c3)n2)cc1`, the GI50 is 0.297 µM and the TGI was 1.65 µM.

`N#CSCC1CC(O)(c2ccccc2)CC(c2ccc(Cl)cc2)O1` (stereo unspecified): the GI50 was 5.07 µM and the TGI came out at 12.9 µM.

`CC(=O)N1N=C(c2ccc(Nc3nc(Nc4ccc(F)cc4)nc(Nc4ccc(Cl)cc4)n3)cc2)CC1c1ccc(N(C)C)cc1` (stereo unspecified): the GI50 was 5.61 µM and the TGI was 33.8 µM.

With `Clc1ccc(-c2nc(C(Cl)Cl)nc3cc(-c4ccccc4)nn23)cc1`, the GI50 is 0.772 µM and the TGI was found to be 2.15 µM.

With `CN(C)c1cccc(/C=C(\C#N)c2ccccc2)c1`, the GI50 is 0.402 µM and the TGI came to 36.8 µM.

As for `Cc1nc2ccccc2c(/C=C/c2ccccc2)c1C(=O)/C=C/c1ccc(Cl)cc1`, the GI50 is 1.56 µM and the TGI is 3.15 µM.

For `C[n+]1cc2cc3c(cc2c2ccccc21)OCO3`, the GI50 was 0.503 µM and the TGI amounted to 3.45 µM.

Turning to `NS(=O)(=O)c1cccc(Nc2nc(SCC(=O)c3ccc([N+](=O)[O-])cc3)nc3ccccc23)c1`, the GI50 is 15.6 µM and the TGI is 43.4 µM.

Regarding `C=C1[C@@H](O)C[C@H]2C(C)(C)C[C@H](Cl)C[C@]2(C)[C@H]1C[C@H](O)[C@H]1CC(=O)NC1=O`, the GI50 was 0.0138 µM and the TGI came out at 0.124 µM.

As for `O=C(O)c1cc2cc(O)ccc2[nH]1`, the GI50 was over 100 µM and the TGI is over 100 µM.

With `COC(=O)c1ccc(NC(N)=NCC(C)(C)COc2ccc(C(F)(F)F)cc2)nc1`, the GI50 is 1.06 µM and the TGI came to 2.73 µM.

As for `Cc1ccc(NC(=O)N2CCCCC2)cc1[N+](=O)[O-]`, the GI50 was over 100 µM and the TGI was over 100 µM.
